Here are results for eight molecules from patent US20220204479A1, “PYRIMIDINE COMPOUND AND PREPARATION METHOD THEREFOR” (Wuhan Humanwell Innovative Drug Research And Development …, priority 2019, published 2022).

For one data set, the target named is T1, autotaxin (ATX) enzyme (Homo sapiens, UniProt Q13822).
T1 construct: purchased Cayman 700580
Nature of the data set: Autotaxin (ATX) enzyme activity inhibition test (Cayman Autotaxin Inhibitor Screening Assay Kit). Format: biochemical. The settings on record: 37° C., 30 min, OD405, read-out: IC50, inhibitory effect on ATX enzyme activity. The protocol: The inhibitory effects of the compounds on the autotaxin enzyme were detected using the Autotaxin Inhibitor Screening Assay Kit (Cayman, 700580). […] Subsequently, the 8 concentrations were diluted with Autotaxin Assay buffer (1×) provided in the kit into 19× compound working solutions (DMSO content was 1.9%). The Autotaxin Assay Reagent (10×) was taken out and diluted by 10 times with Autotaxin Assay Buffer (1×). The Autotaxin Substrate was taken out, dissolved by adding 1.2 mL of Autotaxin Assay Buffer (1×), mixed evenly and let stand by at room temperature. In a 96-well plate, 150 μL of Autotaxin Assay Buffer (1×), 10 μL of the prepared and diluted 19× compound working solution, 10 μL of Autotaxin Assay Reagent (1×), and 20 μL of the dissolved Autotaxin Substrate were added to each of the wells for each concentration, and homogenously mixed. The 96-well plate was shaken in a constant temperature shaker at 37° C. and incubated in the dark for 30 min, and then the plate was taken out and placed on a microplate reader to read OD405.

For data set [1], the target named is T2, ATX enzyme in human plasma (Homo sapiens, UniProt Q13822).
T2 construct: Whole blood was collected from healthy volunteers and anticoagulated with heparin; from tissue; host or cells: human plasma (heparin) from healthy volunteers
Nature of the data set: Inhibition of activity of ATX enzyme in human plasma (LPA18:2 formation, LC-MSMS). Format: biochemical. The settings on record: for IC50: human plasma, 37° C., 3 h, LPA18:2 formation, read-out: IC50, inhibitory effect on activity of ATX enzyme in human plasma. How it is done:
Whole blood was collected from healthy volunteers and anticoagulated with heparin. The blood collection tubes were centrifuged at 3,000 rpm for 10 min, and the plasma was taken and stored at −80° C. for use.
The compound was serially diluted with DMSO according to the conventional concentration requirements, then 3 μL of each of the diluted compound solutions was added to a 96-well plate, and 147 μL of PBS was added to each well containing 3 μL of the compound solution. After mixing homogenously, 50 μL of the mixture was taken out and added to a new 96-well plate. The human plasma was taken out from the −80° C. refrigerator and thawed through rapid shaking in a 37° C. water bath. 50 μL of the human plasma was taken and added to the 96-well plate containing 50 μL of the diluted compound (the final system contained 1% DMSO). The group without the compound was set as the positive group. The 96-well plate was shaken and mixed uniformly, and incubated at 37° C. for 3 h. A blank group was also provided, and the plasma of the blank group was stored at −80° C. The blank group is provided to determine the baseline concentration of endogenous LPA.
After the incubation was finished, the blank group was thawed on ice and transferred to an incubation plate. Excess acetonitrile containing the internal standard LPA17: 0 was added to the incubation plate to precipitate the plasma protein. After vortex centrifugation, the supernatant was taken and diluted, and a peak area of LPA18: 2 and a peak area of internal standard LPA17: 0 were detected using LC-MSMS mass spectrometry.
(§1) A ratio of the peak area of LPA18: 2 to the peak area of internal standard LPA17: 0 was calculated, and a formation inhibition rate of LPA18: 2 was calculated according to the following formula:
(§2) Inhibition rate (%)=100−(compound group with different concentrations−blank group)/(positive group−blank group)*100
According to the inhibition rates of different concentrations of the compound, the IC50 value of the compound for inhibiting activity of ATX enzyme in human plasma was calculated.

Another data set has as its target T3, ATX enzyme in rat plasma (Rattus norvegicus, UniProt Q64610).
T3 construct: Whole blood was collected from rats and anticoagulated with heparin; from tissue; host or cells: rat plasma (heparin)
Nature of the data set: Inhibition of activity of ATX enzyme in rat plasma (LPA18:2 formation, LC-MSMS). The format is biochemical. To be noted: for inhibitory activity on ATX enzyme in rat plasma compared with control compounds 1 and 2: comparison in words. The protocol: Whole blood was collected from rats and anticoagulated with heparin. The blood collection tubes were centrifuged at 3,000 rpm for 15 min, and the plasma was placed on ice for use.
The compound was serially diluted with DMSO: 30% ACN=1:19 according to the conventional concentration requirements, and then placed on ice. 147 μL of plasma, which was placed on ice, was added to a 96-well plate, and then 3 μL of each of the gradient solutions of the compound (finally 1[…] DMSO) was added. A group containing none of the compounds was set as the positive group. The 96-well plate was mixed uniformly, and incubated at 37° C. for 3 h. In addition, a blank group was also provided. At the beginning of the incubation, the plasma of blank group was added to with excessive acetonitrile containing the internal standard LPA17: 0 to precipitate the plasma protein, vortexed to mix, and stored at 4° C. The blank group was provided to determine the baseline concentration of endogenous LPA.
A peak area of LPA18: 2 and a peak area of internal standard LPA17: 0 were detected using LC-MSMS mass spectrometry.
as §1, §2
According to the inhibition rates of different concentrations of the compound, the IC50 value of the compound for inhibiting activity of ATX enzyme in rat plasma, was calculated.

Data set [2] is described as follows: Thermodynamic solubility test. Format: physicochemical. To be noted: thermodynamic from solid. The protocol:
The compound was accurately weighed, and the prepared phosphate buffer (pH 7.4), FeSSIF solution (pH 5.8) and FaSSGF solution (pH 1.6) were added to prepare a solution with a concentration of 4 mg/mL, which was shaken at 1,000 rpm for 1 hour, and then incubated overnight at room temperature. After the incubation, the solution was centrifuged at 12,000 rpm for 10 min to remove undissolved particles, and the supernatant was transferred to a new centrifuge tube. The supernatant was diluted appropriately, then added with an acetonitrile solution containing the internal standard, and quantified using a standard curve prepared with the same matrix.

Data set [3] in a line: Pharmacokinetic test in rats. The format is in vivo. The settings on record: Sprague-Dawley, rat, plasma, male SD rats, oral gavage 10 mg/kg. How it is done: (§3) For the pharmacokinetic test of rats, 3 male SD rats (180-240 g) were used, and fasted overnight. The rats were orally administered by gavage (10 mg/kg). […] The blood samples were centrifuged at 8,000 rpm at 4° C. for 6 min, and plasma was collected and stored at −20° C. The plasma at each time point was taken and added with an acetonitrile solution containing internal standard in 3 to 5 times the amount, vortexed and mixed for 1 min, and centrifuged at 13,000 rpm at 4° C. for 10 min. The supernatant was collected, added with water in 3 times the amount, and mixed. An appropriate amount of the mixture was taken for LC-MS/MS analysis. The main pharmacokinetic parameters were analyzed using WinNonlin 7.0 software with non-compartmental model.

The nature of data set [4]: Pharmacokinetic test in canines. The format is in vivo. To be noted: dog, plasma; male beagle dogs, oral gavage 5 mg/kg. How it is done: as §3
For the pharmacokinetics test of canines, 3 male beagle dogs (8 to 10 kg) were used, and fasted overnight. The dogs were orally administered by gavage (5 mg/kg). The rest of the operation is the same as the pharmacokinetic test in rats.

Data set [5] is described as follows: Human liver microsome stability test. To be noted: human liver microsomes. For orientation: Liver microsomes are a subcellular fraction often used to study metabolism.
Description: The human liver microsome stability test was performed by incubating the compound and human liver microsomes in vitro for detection. First, the test compound was prepared into a 10 mM stock solution in DMSO solvent, and then the compound was diluted to 0.5 mM with acetonitrile. Human liver microsomes (Corning) were diluted with PBS and prepared as a microsome/buffer solution, which was used to dilute the 0.5 mM compound solution into a working solution. […] A deep-well multi-well plate was taken, 30 μL of the working solution and 15 μL of pre-warmed NADPH solution (6 mM) were sequentially added to each well to initiate a reaction, and the reaction was incubated at 37° C. […] After centrifugation, the supernatant was collected, and added with purified water in a ratio of 1:1 to perform LC-MS/MS detection. […] T1/2 was calculated by using Excel.
Setting [6] is: rat plasma, 37° C., 3 h, LPA18:2 formation, read-out: IC50, inhibitory effect on activity of ATX enzyme in rat plasma.
Setting [7] is: FaSSGF solution, fassgf or other biorelevant, FaSSGF pH 1.6, overnight at room temperature, read-out: Solubility, FaSSGF (pH 1.6).
Setting [8] is: phosphate buffer (PBS), aqueous buffer, PBS pH 7.4, overnight at room temperature, read-out: Solubility, PBS (pH 7.4).
The mark [9] stands for this setting: FeSSIF solution, FeSSIF pH 5.8, overnight at room temperature, read-out: Solubility, FeSSIF (pH 5.8).

≈ marks a conversion by molar mass, not a printed value. Where two headings read alike, the source gives them in different places.

One may read the IC50 as the concentration needed to halve the response being measured. With `CC(OCc1c[nH]nn1)C1CCN(C(=O)c2cnc(NC3Cc4ccccc4C3)nc2)CC1` (stereo not shown) [Compound I-3, (4-(1-((1H-1,2,3-triazol-4-yl)methoxy)ethyl)piperidin-1-yl)(2-((2,3-dihydro-TH-inden-2-yl)amino)pyrimidin-5-yl)methanone], the IC50 came out at 6.71 nM on autotaxin (ATX) enzyme and 42.1 nM in data set [1].
What is called solubility is the concentration that dissolves in the medium under given conditions. With `CC1CN(C(=O)c2cnc(NC3Cc4ccccc4C3)nc2)CCC1COCc1c[nH]nn1` (stereo not shown) [Compound I-4, (4-(((1H-1,2,3-triazol-4-yl)methoxy)methyl)-3-methylpiperidin-1-yl)(2-((2,3-dihydro-1H-inden-2-yl)amino)pyrimidin-5-yl)methanone], the IC50 at ATX enzyme in rat plasma (setting [6]) is 32.3 nM. For the same molecule, the solubility in data set [2] (setting [7]) turned out to be 332 µg/mL (≈ 741 µM); in data set [2] (setting [8]), 147 µg/mL (≈ 329 µM).
With `CC1CC(COCc2c[nH]nn2)CCN1C(=O)c1cnc(NC2Cc3ccccc3C2)nc1` (stereo not shown) [Compound I-5, (4-(((1H-1,2,3-triazol-4-yl)methoxy)methyl)-2-methylpiperidin-1-yl)(2-((2,3-dihydro-1H-inden-2-yl)amino)pyrimidin-5-yl)methanone], the IC50 worked out at 1.29 nM at autotaxin (ATX) enzyme, 30.9 nM in data set [1] and 10.7 nM at ATX enzyme in rat plasma (setting [6]). Also, on ATX enzyme in rat plasma, the “inhibitory activity on ATX enzyme in rat plasma compared with control compounds 1 and 2” value was “higher inhibitory activity on ATX enzyme in rat plasma than the control compounds 1 and 2”. The solubility in data set [2] (setting [7]) came out at 448 µg/mL (≈ 1000 µM); in data set [2] (setting [9]) it was 317 µg/mL (≈ 708 µM); in data set [2] (setting [8]), 129 µg/mL (≈ 288 µM).
Regarding `O=C(c1cnc(NC2Cc3ccccc3C2)nc1)N1CCC(COCc2c[nH]nn2)C(F)C1` (stereo not shown) [Compound I-6, (4-(((1H-1,2,3-triazol-4-yl)methoxy)methyl)-3-fluoropiperidin-1-yl)(2-((2,3-dihydro-1H-inden-2-yl)amino)pyrimidin-5-yl)methanone], the IC50 came out at 1.43 nM at autotaxin (ATX) enzyme, 41.2 nM in data set [1] and 22.9 nM at ATX enzyme in rat plasma (setting [6]). The figures for the solubility in data set [2] (setting [7]), in data set [2] (setting [9]) and in data set [2] (setting [8]) were 165 µg/mL (≈ 366 µM), 49 µg/mL (≈ 109 µM) and 18.6 µg/mL (≈ 41.2 µM), respectively.
Take `O=C(c1cnc(NC2Cc3ccc(F)cc3C2)nc1)N1CCC(COCc2c[nH]nn2)CC1` (stereo not shown) [Compound I-7, (4-(((1H-1,2,3-triazol-4-yl)methoxy)methyl)piperidin-1-yl)(2-((5-fluoro-2,3-dihydro-1H-inden-2-yl)amino)pyrimidin-5-yl)methanone]: the IC50 at autotaxin (ATX) enzyme came to 1.16 nM; in data set [1] it was 14.6 nM; at ATX enzyme in rat plasma (setting [6]) it was 14.7 nM.
Regarding `O=C(c1cnc(NC2Cc3cc(F)c(F)cc3C2)nc1)N1CCC(COCc2c[nH]nn2)CC1` [Compound I-8, (4-(((1H-1,2,3-triazol-4-yl)methoxy)methyl)piperidin-1-yl)(2-((5,6-difluoro-2,3-dihydro-1H-inden-2-yl)amino)pyrimidin-5-yl)methanone], the IC50 at autotaxin (ATX) enzyme came to 2.04 nM; on ATX enzyme in rat plasma (setting [6]) it was 136 nM.
For the molecule `O=C(c1cnc(NC2Cc3ccc(F)cc3C2)nc1)N1CC2(CC(OCc3c[nH]nn3)C2)C1` (stereo not shown) [Compound I-10, (6-((1H-1,2,3-triazol-4-yl)methoxy)-2-azaspiro[3.3]heptan-2-yl)(2-((5-fluoro-2,3-dihydro-1H-inden-2-yl)amino)pyrimidin-5-yl)methanone], the IC50 on autotaxin (ATX) enzyme worked out at 1.08 nM; in data set [1], 11.8 nM; on ATX enzyme in rat plasma (setting [6]), 4.8 nM. For the same molecule, the “inhibitory effect on ATX enzyme in human plasma compared with control compounds 1 and 2” value in data set [1] (comparison in words) was “higher inhibitory effect on ATX enzyme in human plasma than the control compounds 1 and 2”. Also, the “inhibitory activity on ATX enzyme in rat plasma compared with control compounds 1 and 2” value at ATX enzyme in rat plasma was “higher inhibitory activity on ATX enzyme in rat plasma than the control compounds 1 and 2”.
The Tmax is the time at which the peak concentration occurs. For orientation: Cmax means the maximum level reached in the sampled fluid or tissue. The term half-life denotes how long it takes for the measured level to halve. Lower therefore signals rapid decline. In the case of `CCc1nc2c(C)cc(N3CCN(CC(=O)N4CC(O)C4)CC3)cn2c1N(C)c1nc(-c2ccc(F)cc2)c(C#N)s1` [Control compound 2, reference compound], the results for the Tmax in data set [3] and in data set [4] were 30 min and 120 min, respectively. Also, the AUC(0-t) in data set [3] (read-out: AUC0-t) amounted to 2570 ng·h/mL; in data set [4], 14200 ng·h/mL. Besides, the Cmax in data set [3] (read-out: Cmax) was 582 ng/mL; in data set [4], 2100 ng/mL. Further, the IC50 against ATX enzyme in rat plasma was found to be 413 nM. Moreover, in data set [5] (NADPH, 37° C., 30 min), the “Remaining percentage (%) of compound after incubation for 30 min” value was determined as 24.8%. In data set [5] (human), this molecule showed a half-life at 1 µM of 16 min.
